Results from patent publication US6383771B1, “Enzyme-based assay for determining effects of exogenous and endogenous factors on cellular energy” (Birkmayer Pharmaceuticals, priority 1997, dated 2002).
Several values for one entry are separate records, joined by “and”; a condition that tells them apart may be missing. Equal values may be shown once.

Key:
complex I = conditions: metabolite of MPTP; cited from earlier work
[1] = Physical performance by spiro-ergometry (bicycle ergometer); assay type: in vivo, human; conditions: 4 weeks
Protocol: (§1) The performance quality, reaction speed and constancy of attention also was tested in these athletes. The performance quality was assessed by the accuracy with which a task was done, i.e., generally in terms of the number of correct identifications of stimuli. Methods used for determination of performance quality were measurement of the continuous attention, vigilance, and the cognitrone program of the Vienna Test system (Dr. Schuhfried Ges.m.b.H., Austria). For examination of the physical performance, a bicycle ergometer (Oxycon-Alpha, Jager Inc., Vienna, Austria) was used. […] The volume and the intensity of the training and exercise program of the athletes was kept constant over that period. […] Data reflecting this is presented below in Tables 2-4.

[2] = Lactate blood levels after maximum performance; assay type: in vivo, human
Protocol: as §1

[3] = tested on: NADH cytochrome C reductase; experiment: NADH cytochrome C reductase assay of whole blood, competitive cyclists before and after oral NADH; assay type: in vivo, human
Protocol: (§2) Enzyme Preparation A 1-mL portion of a whole blood sample obtained from a subject by venipuncture is preserved by addition of a suitable preserving agent such as that provided by a citrate solution. To a 100-μL sample of this citrate blood is added 900 μL of phosphate balanced salt solution (PBS) at pH =7.8. The resulting 1-mL portion of buffer-diluted citrate blood is sonified with an apparatus such as that available from BRANSON at a duty cycle of 40%, output position 3. Sonification is repeated a total of ten times for 10 seconds each. An additional 1-mL volume of PBS is added to the sonified solution. The PBS-diluted solution represents the enzyme preparation utilized for further assay.
(§3) Substrate preparation A 10-mg sample of cytochrome C, obtainable from conventional sources such as Sigma Chemical, St. Louis is dissolved in 9.6 mL of distilled water. To this is added add 200 μL of 0.1 M NaN3 (sodium azide) and 200 μL of PBS (pH 7.8).
(§4) Performance of the enzyme assay A 900-μL volume of cytochrome C solution (reaction substrate) is pipetted into a 1-mL (PMMA) cuvette. The sample is mixed and allowed to incubate for 15 minutes at 37°. A 100-μL volume of enzyme preparation is added to the sample cuvette and mixed thoroughly. The absorption of reduced cytochrome C at 550 nm is measured exactly 60 seconds after addition of the enzyme preparation to the cuvette. The absorption of cytochrome C at 550 nm is again measured after 5 minutes of incubation at 37° C. after the first measurement. […]
(§5) Determination of enzymatic activity The specific activity of the enzyme species is expressed as nanomoles (nmol) of cytochrome C reduced per μL blood per 5 minutes. For quantitative analyses, a calibration curve with 0, 30, 50, 100, 130 nmol reduced cytochrome C concentrations is prepared. For calculation of the enzymatic activity expressed per blood cell, the number of red blood cells, white blood cells and IS platelets are determined. The cell counts of these cells can be determined from the undiluted citrate blood according to standard procedures. […]

[4] = tested on: NADH cytochrome C reductase; experiment: NADH cytochrome C reductase assay of whole blood, soccer players before and after oral NADH; assay type: in vivo, human; set-up: key to Enzyme Activity after NADH intake: nmol cytochrome C reduced per µL blood per 5 min
Protocol: as §2, §3, §4, §5

[5] = Performance quality: continuous attention, vigilance, cognitrone (Vienna Test system); assay type: in vivo, human; set-up: Continuous attention: DRT (mean value), after NADH / Cognitrone: DRT (mean), after NADH / Vigilance: correct reactions, after NADH / Vigilance: DRT (mean), after NADH: unit not given here
Protocol: The performance quality, reaction speed and constancy of attention also was tested in these athletes. The performance quality was assessed by the accuracy with which a task was done, i.e., generally in terms of the number of correct identifications of stimuli. Methods used for determination of performance quality were measurement of the continuous attention, vigilance, and the cognitrone program of the Vienna Test system (Dr. Schuhfried Ges.m.b.H., Austria). For examination of the physical performance, a bicycle ergometer (Oxycon-Alpha, Jager Inc., Vienna, Austria) was used. […] The volume and the intensity of the training and exercise program of the athletes was kept constant over that period.

[6] = tested on: NADH cytochrome C reductase; experiment: NADH cytochrome C reductase assay, rats before and after oral NADH; assay type: in vivo; set-up: Enzyme Activity after NADH intake: unit not given here
Protocol: as §2, §3, §4
Determination of enzymatic activity The specific activity of the enzyme species is expressed as nanomoles (nmol) of cytochrome C reduced per μL blood per 5 minutes. For quantitative analyses, a calibration curve with 0, 30, 50, 100, 130 nmol reduced cytochrome C concentrations is prepared. For calculation of the enzymatic activity expressed per blood cell, the number of red blood cells, white blood cells and IS platelets are determined. The cell counts of these cells can be determined from the undiluted citrate blood according to standard procedures.

[7] = Physical performance on the treadmill or bicycle ergometer, soccer players; assay type: in vivo, human; conditions: 5-mg tablet NADH daily, one month
Protocol: A study similar to that of Example 3 was performed with a European soccer team. […] This increased energy production was confirmed by improved physical performance on the treadmill or bicycle ergometer.

[8] = tested on: NADH cytochrome C reductase; conditions: certain brain areas; causing Parkinsonian-like symptoms; cited from earlier work
[9] = after NADH, 1 tablet NADH (5 mg) per day
[10] = after 4 weeks of one 5-mg tablet NADH per day (n = 17)
[11] = after vs before 4 weeks of one 5-mg tablet NADH per day (n = 17)
[12] = soccer players, per subject, one 5-mg tablet NADH daily for one month
[13] = 4 weeks after intake of one 5-mg tablet NADH per day, n = 17
[14] = 4 weeks of one 5-mg tablet NADH per day vs before, n = 17
[15] = rats, per animal, one 2.5-mg tablet NADH daily for three months

C[n+]1ccc(-c2ccccc2)cc1 [MPP^+, 1-methyl-4-phenyl-pyridine]
effect on complex I in the ETC (complex I): inhibits

NC(=O)C1=CN([C@@H]2O[C@H](COP(=O)(O)OP(=O)(O)OC[C@H]3O[C@@H](n4cnc5c(N)ncnc54)[C@H](O)[C@@H]3O)[C@@H](O)[C@H]2O)C=CC1 [NADH, reduced form of nicotinamide adenine dinucleotide]
Hfmax, mean [1, 9]: 180.00 | Rmax, mean [1, 9]: 1.00 | VO2Max, mean [1, 9]: 4.98 | VO2Max/kg, mean [1, 9]: 71.20 | Vmax, mean [1, 9]: 163.00 | Wmax (maximum performance), mean [1, 9]: 340.00 | Wmax/kg, mean [1, 9]: 4.90 | physical performance ([1]; the nineteen athletes with increased enzyme activity, 5 mg NADH daily): improved | Lactate Level 1 min. after maximum performance, after NADH, mean [2, 10]: 9.0 | Lactate Level 3 min. after maximum performance, after NADH, mean [2, 10]: 7.4 | Lactate Level 1 min. after maximum performance, Differences in percent, Dmax [2, 11]: 22.2% | Lactate Level 1 min. after maximum performance, Differences in percent, Dmean [2, 11]: 10.0% | Lactate Level 1 min. after maximum performance, Differences in percent, Dmed [2, 11]: 9.6% | Lactate Level 1 min. after maximum performance, Differences in percent, Dmin [2, 11]: −7.3% | Lactate Level 3 min. after maximum performance, Differences in percent, Dmax [2, 11]: 70.3% | Lactate Level 3 min. after maximum performance, Differences in percent, Dmean [2, 11]: 17.2% | Lactate Level 3 min. after maximum performance, Differences in percent, Dmed [2, 11]: −3.7% | Lactate Level 3 min. after maximum performance, Differences in percent, Dmin [2, 11]: −22.5% | % Difference in enzyme activity (after vs before NADH intake) ([3]; competitive cyclists, per subject, one 5-mg tablet NADH daily for one month): 50.00% (4×) and 57.10% and 46.70% (2×) and 76.90% and 47.10% (3×) and 64.30% and 60.00% and 61.50% and 53.30% and 58.30% and 41.20% | Enzyme Activity after NADH intake ([3]; competitive cyclists, per subject, one 5-mg tablet NADH daily for one month, activity expressed as nmol cytochrome C reduced per μL blood per 5 minutes): 2.1 (2×) and 2.2 (3×) and 2.3 (3×) and 2.4 (4×) and 2.5 (3×) and 2.7 and 1.9 | endogenous NADH cytochrome C reductase activity ([3]; in nineteen of the twenty athletes, 5-mg tablet daily, one month): increase | endogenous NADH cytochrome C reductase activity ([4]; fifteen soccer players, 5-mg tablet daily, one month): increase | % Difference in enzyme activity (after vs before NADH intake) [4, 12]: 20.00% (4×) and 8.30% and −8.30% and 0.00% (2×) and 33.00% and 16.00% and 7.10% (2×) and 162% and 75% and 6.60% | Enzyme Activity after NADH intake [4, 12]: 1.2 and 1.3 (2×) and 1.6 (5×) and 1.4 (2×) and 1.1 and 1.5 (2×) and 2.1 (2×) | Cognitrone: Correct reactions, after NADH [5, 13]: 190.10 | Cognitrone: DRT (mean), after NADH [5, 13]: 2.09 | Continuous attention: DRT (mean value), after NADH [5, 13]: 0.81 | Continuous attention: Dispersion, after NADH [5, 13]: 0.17 | Continuous attention: correct reactions, after NADH [5, 13]: 118.80 | Continuous attention: missed reactions, after NADH [5, 13]: 1.24 | Vigilance: DRT (mean), after NADH [5, 13]: 0.55 | Vigilance: Dispersion, after NADH [5, 13]: 0.11 | Vigilance: correct reactions, after NADH [5, 13]: 97.88 | Vigilance: incorrect reactions, after NADH [5, 13]: 1.24 | Cognitrone: Correct reactions, % alteration per person [5, 14]: 2.98% | Cognitrone: DRT (mean), % alteration per person [5, 14]: −16.05% | Cognitrone: working time (min), % alteration per person [5, 14]: −14.36% | Continuous attention: DRT (mean value), % alteration per person [5, 14]: −6.48% | Continuous attention: Dispersion, % alteration per person [5, 14]: −11.59% | Continuous attention: correct reactions, % alteration per person [5, 14]: 1.42% | Continuous attention: incorrect reactions, absolute alteration per person [5, 14]: −1.12 | Continuous attention: missed reactions, absolute alteration per person [5, 14]: −1.41 | Vigilance: DRT (mean), % alteration per person [5, 14]: 7.79% | Vigilance: Dispersion, % alteration per person [5, 14]: 4.79% | Vigilance: correct reactions, % alteration per person [5, 14]: 0.01% | Vigilance: incorrect reactions, absolute alteration per person [5, 14]: −0.65 | Vigilance: missed reactions, absolute alteration per person [5, 14]: 0.24 | mental performance ([5]; the nineteen athletes with increased enzyme activity, 5 mg NADH daily, 4 weeks): improved | enzymatic activity ([6]; all test animals (rats), 2.5-mg tablet daily, three months): increase | % Difference in enzyme activity (after vs before NADH intake) [6, 15]: 17.1% and 13.5% (2×) and 11.4% and 7.5% and 13.8% (2×) and 20.0% and 9.6% and 12.5% | Enzyme Activity after NADH intake [6, 15]: 0.41 (3×) and 0.42 (2×) and 0.39 and 0.43 (2×) and 0.45 (2×) | physical performance on the treadmill or bicycle ergometer [7]: improved

CN1CC=C(c2ccccc2)CC1 [MPTP, 1-methyl-4-phenyl-1,2,3,6-tetrahydropyridine]
effect on NADH cytochrome C reductase [8]: irreversibly inhibits and destroys
